The source of these data is ChEMBL document CHEMBL3046685, “Otebo bean (Phaseolus vulgaris) sensitivity to pre-emergence herbicides” (Crop Prot, 2006).

Data set [1] relates to Phaseolus vulgaris. Nature of the data set: Phytotoxicity in Phaseolus vulgaris (cranberry bean) assessed as visual injury at 0.075 to 0.15 kg/ha applied prior to planting relative to control. The conditions noted are these: in vivo, other. The format is organism-based.
Data set [2] deals with Phaseolus vulgaris. Nature of the data set: Increase in Phaseolus vulgaris (otebo bean) yield at 75 g ai/ha applied as spray during pre-emergence treatment for 1 to 2 days (reference value: 3.8 t/ha). It is filed as functional.
Data set [3] has as its system Phaseolus vulgaris. Nature of the data set: Phytotoxicity in Phaseolus vulgaris (otebo bean) assessed as change in moisture content at 75 to 150 g ai/ha applied as spray during preemergence treatment for 1 to 2 days. The conditions noted are these: in vivo, other. It is filed as organism-based.
Data set [4] has as its system Phaseolus vulgaris. Nature of the data set: Phytotoxicity in Phaseolus vulgaris (otebo bean) assessed as shoot dry weight at 150 g ai/ha applied as spray during pre-emergence treatment for 1 to 2 days measured 42 days post emergence (reference value: 164 g). The format is organism-based. The conditions noted are these: in vivo, other.
Data set [5] relates to Phaseolus vulgaris. Nature of the data set: Phytotoxicity in Phaseolus vulgaris (black bean) assessed as reduction in crop yield treated through soil application relative to control. The note with it: in vivo, other. It is filed as organism-based.
The test system of data set [6] is Phaseolus vulgaris. Nature of the data set: Phytotoxicity in Phaseolus vulgaris (otebo bean) assessed as visual injury at 75 g ai/ha applied as spray during pre-emergence treatment for 1 to 2 days measured 14 days post emergence relative to untreated control. It is filed as organism-based. The conditions noted are these: in vivo, other.
Data set [7] relates to Phaseolus vulgaris. Nature of the data set: Phytotoxicity in Phaseolus vulgaris (otebo bean) assessed as visual injury at 75 g ai/ha applied as spray during pre-emergence treatment for 1 to 2 days measured 7 days post emergence relative to untreated control. It is filed as organism-based. The conditions noted are these: in vivo, other.
Data set [8] concerns Phaseolus vulgaris. Nature of the data set: Increase in Phaseolus vulgaris (otebo bean) yield at 150 g ai/ha applied as spray during pre-emergence treatment for 1 to 2 days (reference value: 3.8 t/ha). It is filed as functional.
Data set [9] relates to Phaseolus vulgaris. Nature of the data set: Phytotoxicity in Phaseolus vulgaris (otebo bean) assessed as visual injury at 75 g ai/ha applied as spray during pre-emergence treatment for 1 to 2 days measured 28 days post emergence relative to untreated control. It is filed as organism-based. The note with it: in vivo, other.
Data set [10] concerns Phaseolus vulgaris. Nature of the data set: Phytotoxicity in Phaseolus vulgaris (pinto bean) assessed as visual injury at 75 g ai/ha applied prior to planting relative to control. The note with it: in vivo, other. It is filed as organism-based.
Data set [11] relates to Phaseolus vulgaris. Nature of the data set: Phytotoxicity in Phaseolus vulgaris (cranberry bean) assessed as visual injury at 0.075 to 0.15 kg/ha applied during pre-emergence relative to control. The format is organism-based. The conditions noted are these: in vivo, other.
Data set [12] deals with Phaseolus vulgaris. Nature of the data set: Phytotoxicity in Phaseolus vulgaris (dry bean) assessed as visual injury relative to control. It is filed as organism-based. The conditions noted are these: in vivo.
The test system of data set [13] is Phaseolus vulgaris. Nature of the data set: Phytotoxicity in Phaseolus vulgaris (otebo bean) assessed as shoot dry weight at 75 g ai/ha applied as spray during pre-emergence treatment for 1 to 2 days measured 42 days post emergence (reference value: 164 g). It is filed as organism-based. The note with it: in vivo, other.
For data set [14], the system named is Phaseolus vulgaris. Nature of the data set: Phytotoxicity in Phaseolus vulgaris (otebo bean) assessed as plant height at 150 g ai/ha applied as spray during pre-emergence treatment for 1 to 2 days measured 28 days post emergence (reference value: 29 cm). It is filed as organism-based. The note with it: in vivo, other.
Data set [15] deals with Phaseolus vulgaris. Nature of the data set: Phytotoxicity in Phaseolus vulgaris (otebo bean) assessed as visual injury at 150 g ai/ha applied as spray during pre-emergence treatment for 1 to 2 days measured 7 days post emergence relative to untreated control. It is filed as organism-based. The note with it: in vivo, other.
Data set [16] deals with Phaseolus vulgaris. Nature of the data set: Phytotoxicity in Phaseolus vulgaris (otebo bean) assessed as plant height at 75 g ai/ha applied as spray during pre-emergence treatment for 1 to 2 days measured 28 days post emergence (reference value: 29 cm). The format is organism-based. The conditions noted are these: in vivo, other.
In data set [17] the test system is Phaseolus vulgaris. Nature of the data set: Phytotoxicity in Phaseolus vulgaris (otebo bean) assessed as visual injury at 150 g ai/ha applied as spray during pre-emergence treatment for 1 to 2 days measured 14 days post emergence relative to untreated control. The format is organism-based. The conditions noted are these: in vivo, other.
The subject of data set [18] is Phaseolus vulgaris. Nature of the data set: Phytotoxicity in Phaseolus vulgaris (otebo bean) assessed as visual injury at 150 g ai/ha applied as spray during pre-emergence treatment for 1 to 2 days measured 28 days post emergence relative to untreated control. The note with it: in vivo, other. It is filed as organism-based.
The subject of data set [19] is Phaseolus vulgaris. Nature of the data set: Phytotoxicity in Phaseolus vulgaris (black bean) assessed as visual injury treated through soil application relative to control. It is filed as organism-based. The note with it: in vivo, other.
For data set [20], the system named is Phaseolus vulgaris. Nature of the data set: Phytotoxicity in Phaseolus vulgaris (otebo bean) assessed as shoot dry weight at 3200 g ai/ha applied as spray during pre-emergence treatment for 1 to 2 days measured 42 days post emergence (reference value: 164 g). It is filed as organism-based. The note with it: in vivo, other.
The test system of data set [21] is Phaseolus vulgaris. Nature of the data set: Phytotoxicity in Phaseolus vulgaris (otebo bean) assessed as visual injury at 1600 g ai/ha applied as spray during pre-emergence treatment for 1 to 2 days measured 7 days post emergence relative to untreated control. It is filed as organism-based. The conditions noted are these: in vivo, other.
Data set [22] concerns Phaseolus vulgaris. Nature of the data set: Phytotoxicity in Phaseolus vulgaris (otebo bean) assessed as visual injury at 3200 g ai/ha applied as spray during pre-emergence treatment for 1 to 2 days measured 14 days post emergence relative to untreated control. It is filed as organism-based. The conditions noted are these: in vivo, other.
Data set [23] concerns Phaseolus vulgaris. Nature of the data set: Phytotoxicity in Phaseolus vulgaris (otebo bean) assessed as plant height at 1600 g ai/ha applied as spray during pre-emergence treatment for 1 to 2 days measured 28 days post emergence (reference value: 29 cm). The conditions noted are these: in vivo, other. It is filed as organism-based.
Data set [24] deals with Phaseolus vulgaris. Nature of the data set: Phytotoxicity in Phaseolus vulgaris (otebo bean) assessed as shoot dry weight at 1600 g ai/ha applied as spray during pre-emergence treatment for 1 to 2 days measured 42 days post emergence (reference value: 164 g). It is filed as organism-based. The note with it: in vivo, other.
Data set [25] relates to Phaseolus vulgaris. Nature of the data set: Phytotoxicity in Phaseolus vulgaris (otebo bean) assessed as visual injury at 3200 g ai/ha applied as spray during pre-emergence treatment for 1 to 2 days measured 7 days post emergence relative to untreated control. The format is organism-based. The note with it: in vivo, other.
Data set [26] deals with Phaseolus vulgaris. Nature of the data set: Phytotoxicity in Phaseolus vulgaris (otebo bean) assessed as visual injury at 1600 g ai/ha applied as spray during pre-emergence treatment for 1 to 2 days measured 28 days post emergence relative to untreated control. It is filed as organism-based. The note with it: in vivo, other.
Data set [27] concerns Phaseolus vulgaris. Nature of the data set: Phytotoxicity in Phaseolus vulgaris (otebo bean) assessed as visual injury at 3200 g ai/ha applied as spray during pre-emergence treatment for 1 to 2 days measured 28 days post emergence relative to untreated control. It is filed as organism-based. The conditions noted are these: in vivo, other.
Data set [28] relates to Phaseolus vulgaris. Nature of the data set: Increase in Phaseolus vulgaris (otebo bean) yield at 3200 g ai/ha applied as spray during pre-emergence treatment for 1 to 2 days (reference value: 3.8 t/ha). It is filed as functional.
For data set [29], the system named is Phaseolus vulgaris. Nature of the data set: Phytotoxicity in Phaseolus vulgaris (otebo bean) assessed as plant height at 3200 g ai/ha applied as spray during pre-emergence treatment for 1 to 2 days measured 28 days post emergence (reference value: 29 cm). The note with it: in vivo, other. It is filed as organism-based.
Data set [30] deals with Phaseolus vulgaris. Nature of the data set: Increase in Phaseolus vulgaris (otebo bean) yield at 1600 g ai/ha applied as spray during pre-emergence treatment for 1 to 2 days (reference value: 3.8 t/ha). It is filed as functional.
The subject of data set [31] is Phaseolus vulgaris. Nature of the data set: Phytotoxicity in Phaseolus vulgaris (otebo bean) assessed as visual injury at 1600 g ai/ha applied as spray during pre-emergence treatment for 1 to 2 days measured 14 days post emergence relative to untreated control. It is filed as organism-based. The conditions noted are these: in vivo, other.
The subject of data set [32] is Phaseolus vulgaris. Nature of the data set: Phytotoxicity in Phaseolus vulgaris (otebo bean) assessed as change in moisture content at 1600 to 3200 g ai/ha applied as spray during preemergence treatment for 1 to 2 days. The conditions noted are these: in vivo, other. The format is organism-based.

As for `CCc1cnc(C2=NC(C)(C(C)C)C(=O)N2)c(C(=O)O)c1` (configuration not stated) [IMAZETHAPYR], the Activity is recorded as below 5% in the data set with Phaseolus vulgaris [1]; “Non-toxic” in the data set on Phaseolus vulgaris [3]; 95 g in the data set with Phaseolus vulgaris [4]; 0% in the data set on Phaseolus vulgaris [6]; 0% in the data set on Phaseolus vulgaris [7]; 6% in the data set on Phaseolus vulgaris [9]. Moreover, the Activity in the data set on Phaseolus vulgaris [10] is on record as below 6%; in the data set on Phaseolus vulgaris [11] it was below 5%; with Phaseolus vulgaris [12], “<= 20%”; with Phaseolus vulgaris [13] it was 118 g; with Phaseolus vulgaris [14], 22 cm; in the data set with Phaseolus vulgaris [15], 0%. Moreover, the Activity is given as 26 cm in the data set with Phaseolus vulgaris [16], 1% in the data set on Phaseolus vulgaris [17], 16% in the data set with Phaseolus vulgaris [18] and “<= 6%” in the data set on Phaseolus vulgaris [19]. The Crop_yield is listed as 3.2 tons/ha with Phaseolus vulgaris [2], 49% in the data set with Phaseolus vulgaris [5] and 2.9 tons/ha in the data set on Phaseolus vulgaris [8].
On to `CCc1cccc(C)c1N(C(=O)CCl)[C@@H](C)COC` [S-METOLACHLOR], for which the Activity amounted to 164 g with Phaseolus vulgaris [20]; 2% in the data set with Phaseolus vulgaris [21]; 2% in the data set with Phaseolus vulgaris [22]; 30 cm in the data set on Phaseolus vulgaris [23]; 175 g in the data set with Phaseolus vulgaris [24]; 4% with Phaseolus vulgaris [25]. Moreover, the Activity with Phaseolus vulgaris [26] is on record as 0%; with Phaseolus vulgaris [27], 0%; in the data set with Phaseolus vulgaris [29] it was 29 cm; in the data set with Phaseolus vulgaris [31], 1%; in the data set on Phaseolus vulgaris [32], “Non-toxic”. The results for the Crop_yield in the data set with Phaseolus vulgaris [28] and in the data set on Phaseolus vulgaris [30] were 4.6 tons/ha and 4.1 tons/ha, respectively.
